ChEMBL document CHEMBL1201862, “PubChem BioAssay data set” (2004)
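Values below derive from 48-hour exposures of cells grown in 96-well plates, with endpoints linearly interpolated between the two concentrations bracketing the appropriate inhibition level. GI50 is the concentration that inhibits growth by half.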 Activity calls are given as the source filed them. Cut-off read from the data, not from the text of the source: active = GI50 up to about 1.1 µM and inactive = higher.

Assays:
Experiment in all cases: NCI anticancer screen, dose series, 48 h
HOP-62 = tested on: HOP-62
U-251 = tested on: U-251
NCI-H23 = tested on: NCI-H23
NCI-H460 = tested on: NCI-H460
HCC 2998 = tested on: HCC 2998
MOLT-4 = tested on: MOLT-4
SW-620 = tested on: SW-620
OVCAR-5 = tested on: OVCAR-5
786-0 = tested on: 786-0
UACC-257 = tested on: UACC-257
A498 = tested on: A498
HL-60 = tested on: HL-60
IGROV-1 = tested on: IGROV-1
UO-31 = tested on: UO-31
SF-539 = tested on: SF-539
K562 = tested on: K562
MDA-MB-231 = tested on: MDA-MB-231
CCRF-CEM = tested on: CCRF-CEM
CAKI-1 = tested on: CAKI-1
HOP-92 = tested on: HOP-92

Compound | GI50 (HOP-62) | GI50 (U-251) | GI50 (NCI-H23) | GI50 (NCI-H460) | GI50 (HCC 2998) | GI50 (MOLT-4) | GI50 (SW-620) | GI50 (OVCAR-5) | GI50 (786-0) | GI50 (UACC-257) | GI50 (A498) | GI50 (HL-60) | GI50 (IGROV-1) | GI50 (UO-31) | GI50 (SF-539) | GI50 (K562) | GI50 (MDA-MB-231) | GI50 (CCRF-CEM) | GI50 (CAKI-1) | GI50 (HOP-92)
CC(/C=C/c1ccccc1)=N\NC(=S)N/N=C(C)/C=C/c1ccccc1 | 28.1 µM (inactive) | 4.59 µM (inactive) | 23.7 µM (inactive) | 5.11 µM (inactive) | 20.9 µM (inactive) | 5.93 µM (inactive) | 15.8 µM (inactive) | 28.5 µM (inactive) | 11 µM (inactive) | 20.8 µM (inactive) | 1.24 µM (inactive) | 8.67 µM (inactive) | 13.4 µM (inactive) | 4.33 µM (inactive) | 21.1 µM (inactive) | 4.86 µM (inactive) | 12.8 µM (inactive) | 6.38 µM (inactive) |  | 
COc1cc(/C=C2\Cc3cc(OC)c(OC)cc3C2=O)cc(OC)c1 | 15.8 µM (inactive) | 35.8 µM (inactive) | 17.6 µM (inactive) | 15.1 µM (inactive) |  | > 100 µM (inactive) | > 100 µM (inactive) | > 100 µM (inactive) | 19.2 µM (inactive) | > 87.3 µM (inactive) | 36.8 µM (inactive) | 3.18 µM (inactive) | 5.93 µM (inactive) | > 100 µM (inactive) | 13.1 µM (inactive) | 0.479 µM (active) | 36.3 µM (inactive) | > 100 µM (inactive) | > 46.8 µM (inactive) | 22.8 µM (inactive)
O=C(C/N=C(\CN(c1ccccc1)c1ccccc1)Oc1ccc(Cl)cc1Cl)n1ccnc1 | > 100 µM (inactive) | > 100 µM (inactive) | > 100 µM (inactive) | > 100 µM (inactive) |  | > 100 µM (inactive) | > 100 µM (inactive) | > 100 µM (inactive) | > 100 µM (inactive) | > 100 µM (inactive) | > 100 µM (inactive) |  | > 100 µM (inactive) | > 100 µM (inactive) | > 100 µM (inactive) | > 100 µM (inactive) | > 100 µM (inactive) | > 100 µM (inactive) |  | 63 µM (inactive)
COc1ccc(CC(O)CN2CCOCC2)cc1 (centres undefined) | > 100 µM (inactive) | > 100 µM (inactive) | > 100 µM (inactive) | > 100 µM (inactive) |  | > 100 µM (inactive) | > 100 µM (inactive) | > 100 µM (inactive) | > 100 µM (inactive) | > 100 µM (inactive) | > 100 µM (inactive) | > 100 µM (inactive) | > 100 µM (inactive) | > 100 µM (inactive) |  | > 100 µM (inactive) | > 100 µM (inactive) | > 100 µM (inactive) | > 100 µM (inactive) | > 100 µM (inactive)
CC1(C(=O)O)CCCC1C(=O)O (centres undefined) | > 100 µM (inactive) | > 100 µM (inactive) | > 100 µM (inactive) | > 100 µM (inactive) |  | > 100 µM (inactive) | > 100 µM (inactive) | > 100 µM (inactive) | > 100 µM (inactive) | > 100 µM (inactive) | > 100 µM (inactive) | > 100 µM (inactive) | > 100 µM (inactive) | > 100 µM (inactive) |  | > 100 µM (inactive) | > 100 µM (inactive) | > 100 µM (inactive) | > 100 µM (inactive) | > 100 µM (inactive)
Cc1cc2c(O)c(c1)CN(Cc1ccccc1)Cc1cc(C)cc(c1O)CN(Cc1ccccc1)Cc1cc(C)cc(c1O)CN(Cc1ccccc1)C2 | 46.2 µM (inactive) | > 100 µM (inactive) | > 100 µM (inactive) | > 100 µM (inactive) | > 100 µM (inactive) | > 100 µM (inactive) | > 100 µM (inactive) | > 100 µM (inactive) | > 100 µM (inactive) | > 100 µM (inactive) | > 100 µM (inactive) | > 100 µM (inactive) | > 100 µM (inactive) | > 100 µM (inactive) | > 100 µM (inactive) | > 100 µM (inactive) | > 100 µM (inactive) | > 100 µM (inactive) | > 100 µM (inactive) | 
COc1cc2c(cc1OCCCN1CCOCC1)N=C[C@@H]1CCCN1C2=O | 12.5 µM (inactive) | 4.41 µM (inactive) |  | 24.5 µM (inactive) |  | 4.91 µM (inactive) | 3.33 µM (inactive) | 15.5 µM (inactive) | 4.16 µM (inactive) | 24.6 µM (inactive) | 10.1 µM (inactive) | 5.74 µM (inactive) |  | 11.5 µM (inactive) | 4.7 µM (inactive) | 4.73 µM (inactive) | 11 µM (inactive) | 2.75 µM (inactive) | 5.82 µM (inactive) | 2.37 µM (inactive)
CC(C)(Cc1ccccc1)N1C(=O)N1C(C)(C)Cc1ccccc1 |  | 38 µM (inactive) | 24 µM (inactive) | > 100 µM (inactive) | > 100 µM (inactive) | 18.7 µM (inactive) | 57 µM (inactive) | 19.9 µM (inactive) | 21.6 µM (inactive) | 40.9 µM (inactive) | > 100 µM (inactive) | 4.78 µM (inactive) | 29.9 µM (inactive) | 14.1 µM (inactive) | 33.3 µM (inactive) | 27.4 µM (inactive) | 28.1 µM (inactive) | 20.8 µM (inactive) | > 100 µM (inactive) | 
